Laboratory results as given in article doi:10.1101/706168v1 (biorxiv, 2019).

Tests used:
Assay in all cases: cell-based
[1] = biological target: Kv1.5 (Homo sapiens, UniProt P22460)
[2] = biological target: T1, TRPC5 (Homo sapiens, UniProt Q9UL62)
T1 sequence (Q9UL62 1-973): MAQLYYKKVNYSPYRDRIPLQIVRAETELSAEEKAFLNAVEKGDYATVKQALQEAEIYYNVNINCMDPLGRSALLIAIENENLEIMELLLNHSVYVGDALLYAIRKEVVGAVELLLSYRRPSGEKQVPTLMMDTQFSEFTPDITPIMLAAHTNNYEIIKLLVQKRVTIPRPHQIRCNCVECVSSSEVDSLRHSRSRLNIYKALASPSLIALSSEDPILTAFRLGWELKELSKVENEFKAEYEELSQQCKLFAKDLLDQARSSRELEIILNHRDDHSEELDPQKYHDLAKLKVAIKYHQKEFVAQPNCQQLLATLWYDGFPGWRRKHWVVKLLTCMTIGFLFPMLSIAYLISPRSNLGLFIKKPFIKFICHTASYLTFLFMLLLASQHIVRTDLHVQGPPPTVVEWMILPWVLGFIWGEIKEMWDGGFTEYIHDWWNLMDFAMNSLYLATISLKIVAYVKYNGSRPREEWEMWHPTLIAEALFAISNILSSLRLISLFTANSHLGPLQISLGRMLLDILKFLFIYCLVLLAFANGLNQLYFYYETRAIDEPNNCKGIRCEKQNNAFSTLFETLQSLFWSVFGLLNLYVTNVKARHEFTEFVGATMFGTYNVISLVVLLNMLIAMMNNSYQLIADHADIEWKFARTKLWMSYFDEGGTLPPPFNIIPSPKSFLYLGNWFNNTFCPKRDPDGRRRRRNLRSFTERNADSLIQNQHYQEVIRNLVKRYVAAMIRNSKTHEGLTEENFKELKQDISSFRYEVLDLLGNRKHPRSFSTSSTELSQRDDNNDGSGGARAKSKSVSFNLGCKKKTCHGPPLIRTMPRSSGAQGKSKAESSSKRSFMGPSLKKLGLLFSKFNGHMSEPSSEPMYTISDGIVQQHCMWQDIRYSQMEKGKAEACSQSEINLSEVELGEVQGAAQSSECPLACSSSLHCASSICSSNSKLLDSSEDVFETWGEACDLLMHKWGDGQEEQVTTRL

[3] = biological target: Cav1.2 (Homo sapiens, UniProt Q13936)
Cav1.2, sequence (Q13936 whole entry): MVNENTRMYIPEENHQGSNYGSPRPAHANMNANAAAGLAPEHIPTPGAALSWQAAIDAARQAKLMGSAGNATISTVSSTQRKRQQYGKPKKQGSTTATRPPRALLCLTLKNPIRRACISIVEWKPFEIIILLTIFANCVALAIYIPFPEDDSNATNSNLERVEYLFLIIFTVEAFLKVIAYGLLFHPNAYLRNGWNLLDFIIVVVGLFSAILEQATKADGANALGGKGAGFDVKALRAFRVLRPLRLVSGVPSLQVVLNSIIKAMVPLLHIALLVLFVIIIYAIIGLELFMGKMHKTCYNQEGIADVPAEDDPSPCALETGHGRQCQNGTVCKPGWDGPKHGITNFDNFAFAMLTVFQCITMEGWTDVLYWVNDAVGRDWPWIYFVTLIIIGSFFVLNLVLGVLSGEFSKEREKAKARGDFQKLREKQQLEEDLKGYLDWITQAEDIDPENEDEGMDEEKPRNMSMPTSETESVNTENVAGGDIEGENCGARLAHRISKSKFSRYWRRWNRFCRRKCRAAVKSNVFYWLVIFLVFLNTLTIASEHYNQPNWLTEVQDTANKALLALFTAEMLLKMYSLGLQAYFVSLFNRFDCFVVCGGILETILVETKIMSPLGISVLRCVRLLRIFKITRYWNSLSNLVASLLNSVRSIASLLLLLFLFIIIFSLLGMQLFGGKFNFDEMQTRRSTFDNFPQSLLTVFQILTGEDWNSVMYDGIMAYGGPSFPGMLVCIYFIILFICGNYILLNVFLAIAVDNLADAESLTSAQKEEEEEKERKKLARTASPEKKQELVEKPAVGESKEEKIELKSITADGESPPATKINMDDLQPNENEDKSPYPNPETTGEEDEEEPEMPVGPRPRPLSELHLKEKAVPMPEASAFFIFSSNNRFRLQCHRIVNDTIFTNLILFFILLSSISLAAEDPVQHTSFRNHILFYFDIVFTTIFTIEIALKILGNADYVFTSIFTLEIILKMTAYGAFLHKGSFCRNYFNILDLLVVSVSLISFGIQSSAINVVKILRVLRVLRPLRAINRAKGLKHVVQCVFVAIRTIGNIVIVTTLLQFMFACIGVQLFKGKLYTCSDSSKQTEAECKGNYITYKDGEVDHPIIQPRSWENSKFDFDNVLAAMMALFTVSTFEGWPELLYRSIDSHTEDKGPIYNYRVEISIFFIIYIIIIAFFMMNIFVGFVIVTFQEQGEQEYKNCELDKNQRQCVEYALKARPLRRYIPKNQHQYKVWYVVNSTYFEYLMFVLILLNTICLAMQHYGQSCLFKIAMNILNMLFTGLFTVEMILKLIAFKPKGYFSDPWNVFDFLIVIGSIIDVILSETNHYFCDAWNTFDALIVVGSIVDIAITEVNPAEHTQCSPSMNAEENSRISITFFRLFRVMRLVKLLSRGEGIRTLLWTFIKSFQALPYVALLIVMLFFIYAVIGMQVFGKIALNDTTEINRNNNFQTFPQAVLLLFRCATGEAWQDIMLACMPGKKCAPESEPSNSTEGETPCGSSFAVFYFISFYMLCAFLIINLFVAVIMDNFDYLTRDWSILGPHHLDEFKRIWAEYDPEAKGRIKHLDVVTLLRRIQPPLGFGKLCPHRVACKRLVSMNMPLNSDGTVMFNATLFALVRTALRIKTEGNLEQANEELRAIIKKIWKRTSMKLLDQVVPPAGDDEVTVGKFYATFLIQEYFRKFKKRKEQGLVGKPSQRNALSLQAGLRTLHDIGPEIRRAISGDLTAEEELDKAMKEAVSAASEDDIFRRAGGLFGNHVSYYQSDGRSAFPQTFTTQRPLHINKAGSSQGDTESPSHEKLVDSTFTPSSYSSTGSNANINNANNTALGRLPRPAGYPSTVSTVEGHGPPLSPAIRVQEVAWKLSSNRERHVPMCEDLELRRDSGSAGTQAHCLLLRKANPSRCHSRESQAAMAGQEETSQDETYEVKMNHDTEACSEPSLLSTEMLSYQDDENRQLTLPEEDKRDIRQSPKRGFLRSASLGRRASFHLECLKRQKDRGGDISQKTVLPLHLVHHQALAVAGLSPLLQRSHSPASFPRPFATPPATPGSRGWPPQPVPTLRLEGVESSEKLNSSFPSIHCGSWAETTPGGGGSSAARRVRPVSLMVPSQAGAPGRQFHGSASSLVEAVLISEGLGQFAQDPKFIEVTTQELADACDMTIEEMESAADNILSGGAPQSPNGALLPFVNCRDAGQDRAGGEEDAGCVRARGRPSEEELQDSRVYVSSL

[4] = biological target: T2, EAG1 (Homo sapiens, UniProt O95259)
T2 sequence (O95259 1-989): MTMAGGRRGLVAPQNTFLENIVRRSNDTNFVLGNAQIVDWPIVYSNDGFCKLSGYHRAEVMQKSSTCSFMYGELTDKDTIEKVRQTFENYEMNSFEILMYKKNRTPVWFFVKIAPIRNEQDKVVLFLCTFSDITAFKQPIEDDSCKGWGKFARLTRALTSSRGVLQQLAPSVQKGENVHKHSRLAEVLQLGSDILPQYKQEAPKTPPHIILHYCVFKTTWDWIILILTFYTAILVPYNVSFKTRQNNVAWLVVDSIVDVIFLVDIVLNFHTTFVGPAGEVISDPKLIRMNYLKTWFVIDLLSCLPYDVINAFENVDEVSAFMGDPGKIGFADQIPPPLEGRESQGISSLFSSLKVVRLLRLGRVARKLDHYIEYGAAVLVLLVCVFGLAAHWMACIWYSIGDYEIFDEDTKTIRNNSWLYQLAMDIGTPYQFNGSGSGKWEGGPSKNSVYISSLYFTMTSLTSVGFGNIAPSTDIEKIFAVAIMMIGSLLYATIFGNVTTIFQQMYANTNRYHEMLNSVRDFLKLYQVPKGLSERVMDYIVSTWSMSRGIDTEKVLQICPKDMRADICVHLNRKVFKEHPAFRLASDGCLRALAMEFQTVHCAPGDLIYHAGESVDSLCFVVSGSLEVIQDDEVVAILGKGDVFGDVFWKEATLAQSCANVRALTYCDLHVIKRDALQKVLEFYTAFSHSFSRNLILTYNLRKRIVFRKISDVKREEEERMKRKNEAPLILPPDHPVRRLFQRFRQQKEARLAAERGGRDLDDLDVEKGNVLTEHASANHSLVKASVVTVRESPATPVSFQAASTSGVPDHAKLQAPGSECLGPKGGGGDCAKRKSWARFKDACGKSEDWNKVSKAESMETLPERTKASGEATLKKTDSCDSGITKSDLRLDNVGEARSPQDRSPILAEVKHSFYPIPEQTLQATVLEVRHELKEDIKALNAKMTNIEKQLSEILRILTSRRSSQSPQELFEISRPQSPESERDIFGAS

[5] = biological target: hERG (Homo sapiens, UniProt Q12809)
hERG, sequence (Q12809 whole entry): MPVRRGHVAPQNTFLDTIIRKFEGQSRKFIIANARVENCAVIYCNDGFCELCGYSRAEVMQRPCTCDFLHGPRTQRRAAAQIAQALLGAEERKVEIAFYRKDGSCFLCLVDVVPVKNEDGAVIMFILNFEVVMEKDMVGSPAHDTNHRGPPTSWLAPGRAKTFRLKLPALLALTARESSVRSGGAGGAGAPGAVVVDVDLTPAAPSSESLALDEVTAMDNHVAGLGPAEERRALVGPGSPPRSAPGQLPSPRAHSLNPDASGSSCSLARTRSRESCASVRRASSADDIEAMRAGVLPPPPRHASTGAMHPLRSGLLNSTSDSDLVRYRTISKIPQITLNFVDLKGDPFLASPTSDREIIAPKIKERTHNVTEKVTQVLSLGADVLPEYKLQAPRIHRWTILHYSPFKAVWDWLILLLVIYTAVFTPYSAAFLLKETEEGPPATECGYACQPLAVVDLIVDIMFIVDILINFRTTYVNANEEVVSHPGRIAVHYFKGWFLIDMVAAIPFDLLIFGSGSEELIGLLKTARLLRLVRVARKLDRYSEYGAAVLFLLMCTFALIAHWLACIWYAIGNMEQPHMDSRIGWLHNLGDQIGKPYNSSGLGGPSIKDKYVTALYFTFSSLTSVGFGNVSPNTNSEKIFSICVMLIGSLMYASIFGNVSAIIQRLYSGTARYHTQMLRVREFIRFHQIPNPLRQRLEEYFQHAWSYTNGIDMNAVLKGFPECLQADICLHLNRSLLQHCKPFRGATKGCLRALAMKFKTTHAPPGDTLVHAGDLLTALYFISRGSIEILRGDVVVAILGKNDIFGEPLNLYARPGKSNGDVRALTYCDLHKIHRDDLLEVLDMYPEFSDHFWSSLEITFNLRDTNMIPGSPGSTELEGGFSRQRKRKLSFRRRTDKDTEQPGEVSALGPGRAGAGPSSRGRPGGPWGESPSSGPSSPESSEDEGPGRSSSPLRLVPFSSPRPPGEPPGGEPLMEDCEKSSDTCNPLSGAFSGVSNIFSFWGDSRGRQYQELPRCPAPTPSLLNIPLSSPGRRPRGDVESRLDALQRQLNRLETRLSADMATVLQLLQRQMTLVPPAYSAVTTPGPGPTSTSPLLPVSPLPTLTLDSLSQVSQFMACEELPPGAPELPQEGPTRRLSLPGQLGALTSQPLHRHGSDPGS

[6] = biological target: TRPV4 (Homo sapiens, UniProt Q9HBA0)
TRPV4, sequence (Q9HBA0 whole entry): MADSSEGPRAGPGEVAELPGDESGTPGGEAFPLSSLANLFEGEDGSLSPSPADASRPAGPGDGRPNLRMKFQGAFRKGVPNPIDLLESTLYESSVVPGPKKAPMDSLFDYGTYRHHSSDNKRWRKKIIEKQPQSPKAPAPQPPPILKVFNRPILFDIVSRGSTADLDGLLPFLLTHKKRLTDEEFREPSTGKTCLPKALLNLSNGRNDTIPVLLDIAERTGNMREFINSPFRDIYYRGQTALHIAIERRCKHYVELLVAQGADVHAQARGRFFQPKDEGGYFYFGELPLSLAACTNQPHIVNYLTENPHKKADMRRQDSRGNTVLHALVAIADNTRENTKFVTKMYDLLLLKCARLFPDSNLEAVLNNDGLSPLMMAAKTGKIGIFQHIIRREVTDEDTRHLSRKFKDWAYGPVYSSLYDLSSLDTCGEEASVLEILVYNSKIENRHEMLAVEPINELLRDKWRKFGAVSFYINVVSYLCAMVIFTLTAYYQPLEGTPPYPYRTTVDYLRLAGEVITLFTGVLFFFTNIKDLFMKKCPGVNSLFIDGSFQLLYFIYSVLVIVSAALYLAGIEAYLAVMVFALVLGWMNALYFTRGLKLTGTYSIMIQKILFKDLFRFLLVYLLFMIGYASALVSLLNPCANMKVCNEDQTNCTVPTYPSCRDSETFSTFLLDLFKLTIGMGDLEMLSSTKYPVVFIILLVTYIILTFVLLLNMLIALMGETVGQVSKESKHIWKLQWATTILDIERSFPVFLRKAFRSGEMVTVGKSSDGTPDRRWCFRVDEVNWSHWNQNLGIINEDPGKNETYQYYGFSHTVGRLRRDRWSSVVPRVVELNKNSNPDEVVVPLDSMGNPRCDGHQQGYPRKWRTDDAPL

Kv1.5, sequence (P22460 whole entry): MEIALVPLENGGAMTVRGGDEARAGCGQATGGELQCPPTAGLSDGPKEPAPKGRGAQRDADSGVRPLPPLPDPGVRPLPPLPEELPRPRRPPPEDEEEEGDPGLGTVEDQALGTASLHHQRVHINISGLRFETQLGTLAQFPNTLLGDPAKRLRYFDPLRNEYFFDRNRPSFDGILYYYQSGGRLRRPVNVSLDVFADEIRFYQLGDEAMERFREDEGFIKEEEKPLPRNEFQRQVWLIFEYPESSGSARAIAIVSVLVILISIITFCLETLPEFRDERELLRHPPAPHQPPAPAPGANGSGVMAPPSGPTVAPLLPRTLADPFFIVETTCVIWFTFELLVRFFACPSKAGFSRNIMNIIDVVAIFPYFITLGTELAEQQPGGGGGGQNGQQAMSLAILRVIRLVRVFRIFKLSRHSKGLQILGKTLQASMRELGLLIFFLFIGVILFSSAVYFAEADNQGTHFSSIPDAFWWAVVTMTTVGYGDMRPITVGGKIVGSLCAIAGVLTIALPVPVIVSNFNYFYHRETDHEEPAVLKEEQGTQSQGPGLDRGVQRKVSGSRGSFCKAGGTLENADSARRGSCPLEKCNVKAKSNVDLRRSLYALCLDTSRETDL

IC50 [1]: 19 µM | IC50 [2]: > 30 µM | IC50 [4]: > 30 µM | IC50 [6]: > 30 µM
SMILES: O=C(c1ccccc1F)N1CCN(Cc2c(-c3ccc(Br)cc3)nc3ccccn23)CC1 [BAY 1000493, (4-{[2-(4-bromophenyl)imidazo[1,2-a]pyridin-3-yl]methyl}vpiperazin-1-yl)(2-fluorophenyl)methanone]
IC50 [3]: > 30 µM | IC50 [5]: 2.4 µM
